Among the data in patent US11365188B2, “JAK inhibitors” (priority 2018, dated 2022) are IC50 values, retold here.

Where only a bound is given, the exact number is not on record here.

Holding throughout (assay type): biochemical
Assay [1] concerns the target T1, JAK3 (Homo sapiens, UniProt P52333).
T1 sequence (P52333 1-1124): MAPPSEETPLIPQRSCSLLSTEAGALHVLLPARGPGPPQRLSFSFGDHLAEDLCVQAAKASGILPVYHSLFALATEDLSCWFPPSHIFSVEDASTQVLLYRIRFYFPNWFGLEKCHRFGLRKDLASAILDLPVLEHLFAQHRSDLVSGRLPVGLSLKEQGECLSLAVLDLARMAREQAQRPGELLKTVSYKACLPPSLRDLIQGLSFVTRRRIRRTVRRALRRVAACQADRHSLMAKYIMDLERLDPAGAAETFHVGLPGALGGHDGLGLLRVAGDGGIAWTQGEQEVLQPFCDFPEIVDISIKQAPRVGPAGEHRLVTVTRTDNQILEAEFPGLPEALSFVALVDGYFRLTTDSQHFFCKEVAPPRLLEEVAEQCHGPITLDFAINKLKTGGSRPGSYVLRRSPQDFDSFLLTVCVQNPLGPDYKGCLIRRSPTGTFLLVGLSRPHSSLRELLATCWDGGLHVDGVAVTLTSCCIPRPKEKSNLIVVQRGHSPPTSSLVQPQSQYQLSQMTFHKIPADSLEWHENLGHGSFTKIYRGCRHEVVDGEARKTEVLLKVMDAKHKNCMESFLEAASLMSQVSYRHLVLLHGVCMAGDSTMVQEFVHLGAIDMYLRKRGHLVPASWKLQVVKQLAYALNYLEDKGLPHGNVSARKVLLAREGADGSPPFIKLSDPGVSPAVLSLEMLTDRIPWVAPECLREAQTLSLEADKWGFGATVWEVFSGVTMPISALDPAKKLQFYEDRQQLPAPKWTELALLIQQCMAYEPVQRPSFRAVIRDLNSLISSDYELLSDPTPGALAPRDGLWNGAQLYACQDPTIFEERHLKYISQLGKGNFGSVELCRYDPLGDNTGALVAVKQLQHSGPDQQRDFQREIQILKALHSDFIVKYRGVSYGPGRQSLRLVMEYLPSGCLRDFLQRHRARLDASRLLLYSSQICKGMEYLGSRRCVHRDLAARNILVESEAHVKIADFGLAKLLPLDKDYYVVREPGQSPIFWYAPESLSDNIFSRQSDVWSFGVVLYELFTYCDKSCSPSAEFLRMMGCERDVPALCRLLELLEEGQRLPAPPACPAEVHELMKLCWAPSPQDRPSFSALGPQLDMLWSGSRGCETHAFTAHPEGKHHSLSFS
The assay can be described thus: JAK3 Assay (Caliper EZ Reader, fluoresceinated peptide). The conditions noted are these: ATP 3.5 μM; JAK3 0.5 nM; 30 minutes at room temperature; read-out: JAK3 inhibition. As for the experimental part: JAK3 Assay 384-well plates in the left foot butoxy measured progress. The final assay volume was 25 μL, 250 nL 100× compounds, 10 μL enzyme mix and 15 μL substrate mix (fluoresceinated peptide and ATP) in assay buffer (50 mM HEPES (pH 7.5), 10 mM MgCl2, 0.01% TritonX-100, 0.01% Brij35, 0.5 mM EGTA and 2 mM DTT) prepared as test compound. By mixing the JAK3 with substrates and test compounds to start the reaction. The reaction mixture was incubated for 30 minutes at room temperature, then added 30 μL stop buffer for each sample to terminate the reaction with 50 mM EDTA. After termination of the kinase reaction, the proportion of phosphorylated product was determined as a fraction of total peptide substrate using Caliper EZ Reader II. Inhibition data were calculated by comparison with 100% of the reaction mixture without enzyme inhibition and vehicle-only reaction mixture billion % inhibition compared. The final concentration of reagents in the assays is: ATP, 3.5 μM; JAK3 fluorescent peptide (5-FAM-EEPLYWSFPAKKK-CONH2), 3 μM; JAK3, 0.5 nM; and DMSO, 1%. Dose response curve were generated to determine the concentration required for IC50 of JAK3 activity.

Assay [2] has as its target JAK2 (Homo sapiens, UniProt O60674). The assay can be described thus: JAK2 Assay (Caliper EZ Reader, fluoresceinated peptide). The conditions noted are these: ATP 11.4 μM; JAK2 0.25 nM; 15 minutes at room temperature; read-out: JAK2 inhibition. How it is done:
JAK2 Assay 384-well plates in the left foot butoxy measured progress. The final assay volume was 25 μL, 250 nL 100× compounds, 10 μL enzyme mix and 15 μL substrate mix (fluoresceinated peptide and ATP) in assay buffer (50 mM HEPES (pH 7.5), 10 mM MgCl2, 0.01% TritonX-100, 0.01% Brij35, 0.5 mM EGTA and 2 mM DTT) prepared as test compound By mixing the JAK2 with substrates and test compounds to start the reaction. The reaction mixture was incubated for 15 minutes at room temperature, then added 30 μL stop buffer for each sample to terminate the reaction with 50 mM EDTA. After termination of the kinase reaction, the proportion of phosphorylated product was determined as a fraction of total peptide substrate using Caliper EZ Reader 1 Inhibition data were calculated by comparison with 100% of the reaction mixture without enzyme inhibition and vehicle-only reaction mixture billion % inhibition compared. The final concentration of reagents in the assays is: ATP, 11.4 μM; JAK2 fluorescent peptide (5-FAM-EEPLYWSFPAKKK-CONH2), 3 μM; JAK2, 0.25 nM; and DMSO, 1%. Dose response curve were generated to determine the concentration required for IC50 of JAK2 activity.

Assay [3] concerns the target JAK1 (Homo sapiens, UniProt P23458). The assay can be described thus: JAK Kinase Assay (JAK1, Caliper EZ Reader, fluoresceinated peptide). The conditions noted are these: ATP 76.5 μM; JAK1 10 nM; 120 minutes at room temperature; read-out: JAK1 inhibition.

Sequence of JAK1 (P23458 whole entry, species assumed): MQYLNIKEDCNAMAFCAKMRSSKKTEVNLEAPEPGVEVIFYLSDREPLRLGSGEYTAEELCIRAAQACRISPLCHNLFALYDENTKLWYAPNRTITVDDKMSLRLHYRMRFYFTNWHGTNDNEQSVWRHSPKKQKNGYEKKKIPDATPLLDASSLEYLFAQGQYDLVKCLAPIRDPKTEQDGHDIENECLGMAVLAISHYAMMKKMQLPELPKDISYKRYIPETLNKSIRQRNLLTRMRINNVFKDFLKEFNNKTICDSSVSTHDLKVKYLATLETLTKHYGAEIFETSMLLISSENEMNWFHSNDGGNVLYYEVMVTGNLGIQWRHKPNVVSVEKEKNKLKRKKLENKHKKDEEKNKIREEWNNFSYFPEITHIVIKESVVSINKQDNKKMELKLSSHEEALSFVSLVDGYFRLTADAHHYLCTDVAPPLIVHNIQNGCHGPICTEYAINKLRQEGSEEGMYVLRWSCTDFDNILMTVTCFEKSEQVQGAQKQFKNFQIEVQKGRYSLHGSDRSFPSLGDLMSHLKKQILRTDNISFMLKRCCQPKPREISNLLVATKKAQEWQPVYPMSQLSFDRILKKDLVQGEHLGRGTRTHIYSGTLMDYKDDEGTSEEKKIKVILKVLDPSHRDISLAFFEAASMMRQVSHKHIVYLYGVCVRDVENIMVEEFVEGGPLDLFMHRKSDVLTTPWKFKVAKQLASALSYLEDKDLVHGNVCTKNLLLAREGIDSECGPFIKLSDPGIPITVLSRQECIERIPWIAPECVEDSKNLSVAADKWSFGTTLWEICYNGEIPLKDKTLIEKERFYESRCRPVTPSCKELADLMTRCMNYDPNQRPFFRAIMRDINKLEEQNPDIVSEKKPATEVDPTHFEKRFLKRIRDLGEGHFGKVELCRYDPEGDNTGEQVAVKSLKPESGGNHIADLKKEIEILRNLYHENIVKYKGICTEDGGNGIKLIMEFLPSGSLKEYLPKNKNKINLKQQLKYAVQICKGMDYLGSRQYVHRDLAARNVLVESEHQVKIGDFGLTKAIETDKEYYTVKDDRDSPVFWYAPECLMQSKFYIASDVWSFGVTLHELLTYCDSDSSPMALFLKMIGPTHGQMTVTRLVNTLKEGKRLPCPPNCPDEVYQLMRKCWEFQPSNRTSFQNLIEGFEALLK
Sequence of JAK2 (O60674 whole entry, species assumed): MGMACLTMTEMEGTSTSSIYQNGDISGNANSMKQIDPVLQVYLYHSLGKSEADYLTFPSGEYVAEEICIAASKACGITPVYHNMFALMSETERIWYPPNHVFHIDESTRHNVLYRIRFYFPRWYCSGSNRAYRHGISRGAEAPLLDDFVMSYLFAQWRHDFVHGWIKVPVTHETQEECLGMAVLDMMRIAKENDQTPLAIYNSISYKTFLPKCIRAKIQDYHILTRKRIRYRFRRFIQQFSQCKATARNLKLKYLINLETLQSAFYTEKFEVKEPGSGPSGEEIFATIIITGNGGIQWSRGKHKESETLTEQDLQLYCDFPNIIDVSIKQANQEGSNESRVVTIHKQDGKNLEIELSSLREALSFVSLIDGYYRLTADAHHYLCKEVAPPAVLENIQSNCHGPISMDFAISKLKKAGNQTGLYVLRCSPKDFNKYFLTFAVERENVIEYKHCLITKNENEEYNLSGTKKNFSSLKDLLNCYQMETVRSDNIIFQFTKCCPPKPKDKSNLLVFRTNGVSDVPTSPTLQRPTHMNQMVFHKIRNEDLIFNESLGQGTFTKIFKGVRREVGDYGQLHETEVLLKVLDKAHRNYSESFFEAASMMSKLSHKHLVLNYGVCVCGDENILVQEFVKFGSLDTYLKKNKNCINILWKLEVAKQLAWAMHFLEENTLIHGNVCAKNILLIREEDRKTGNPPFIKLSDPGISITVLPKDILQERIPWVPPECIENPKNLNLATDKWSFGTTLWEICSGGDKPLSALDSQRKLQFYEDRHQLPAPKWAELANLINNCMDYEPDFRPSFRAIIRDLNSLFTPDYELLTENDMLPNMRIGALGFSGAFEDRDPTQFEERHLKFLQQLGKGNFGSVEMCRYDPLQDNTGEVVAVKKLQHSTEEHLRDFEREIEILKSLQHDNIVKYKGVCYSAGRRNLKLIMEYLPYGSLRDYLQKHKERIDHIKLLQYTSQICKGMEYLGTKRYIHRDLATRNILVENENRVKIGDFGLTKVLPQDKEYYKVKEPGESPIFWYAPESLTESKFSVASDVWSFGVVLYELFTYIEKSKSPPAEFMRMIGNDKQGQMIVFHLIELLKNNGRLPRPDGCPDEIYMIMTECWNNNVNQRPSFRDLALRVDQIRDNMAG

For `CN(c1ncnc2[nH]ccc12)C1CC2(C1)CN(C(=O)C1(C#N)CC1)C2` [Compound 19, 1-(6-(methyl(7H-pyrrolo[2,3-d]pyrimidin-4-yl)amino)-2-azaspiro[3.3]heptane-2-carbonyl)cyclopropanecarbonitrile], the IC50 in assay [1] lay in the range of 1 to 10 µM; in assay [2], 0.1 to 1 µM; in assay [3], 0.01 to 0.1 µM.
In the case of `CN(c1ncnc2[nH]ccc12)C1CC2(C1)CN(C(=O)c1cc3ccccc3s1)C2` [Compound 20, benzo[b]thiophen-2-yl(6-(methyl(7H-pyrrolo[2,3-d]pyrimidin-4-yl)amino)-2-azaspiro[3.3]heptan-2-yl)methanone], the IC50 in assay [1] lay within 1 to 10 µM; in assay [2], 1 to 10 µM; in assay [3], 0.01 to 0.1 µM.
Consider `CN(c1ncnc2[nH]ccc12)C1CC2(C1)CN(C(=O)CCC(F)(F)F)C2` [Compound 21, 4,4,4-trifluoro-1-(6-(methyl(7H-pyrrolo[2,3-d]pyrimidin-4-yl)amino)-2-azaspiro[3.3]heptan-2-yl)butan-1-one], for which the IC50 in assay [1] was in the range of 1 to 10 µM; in assay [2], 0.1 to 1 µM; in assay [3] it was 0.01 to 0.1 µM.
Take `CN(c1ncnc2[nH]ccc12)C1CC2(C1)CN(C(=O)c1csc3ccccc13)C2` [Compound 22, benzo[b]thiophen-3-yl(6-(methyl(7H-pyrrolo[2,3-d]pyrimidin-4-yl)amino)-2-azaspiro[3.3]heptan-2-yl)methanone]: the IC50 in assay [1] lay within 1 to 10 µM; in assay [2], 1 to 10 µM; in assay [3] it was 0.01 to 0.1 µM.
Turning to `CN(c1ncnc2[nH]ccc12)C1CC2(C1)CN(C(=O)Cc1c[nH]c3ccccc13)C2` [Compound 23, 2-(1H-indol-3-yl)-1-(6-(methyl(7H-pyrrolo[2,3-d]pyrimidin-4-yl)amino)-2-azaspiro[3.3]heptan-2-yl)ethanone], the IC50 was 1 to 10 µM in assay [1], 1 to 10 µM in assay [2] and 0.1 to 1 µM in assay [3].
On to `Cc1cncc(C(=O)N2CC3(CC(N(C)c4ncnc5[nH]ccc45)C3)C2)n1` [Compound 29, (6-(methyl(7H-pyrrolo[2,3-d]pyrimidin-4-yl)amino)-2-azaspiro[3.3]heptan-2-yl)(6-methylpyrazin-2-yl)methanone], for which the IC50 is no less than 10 µM in assay [1], 1 to 10 µM in assay [2] and 0.1 to 1 µM in assay [3].
Consider `Cc1cc(C(=O)N2CC3(CC(N(C)c4ncnc5[nH]ccc45)C3)C2)ccc1C#N` [Compound 34, 2-methyl-4-(6-(methyl(7H-pyrrolo[2,3-d]pyrimidin-4-yl)amino)-2-azaspiro[3.3]heptane-2-carbonyl)benzonitrile], for which the values for the IC50 in assay [1], in assay [2] and in assay [3] were 1 to 10 µM, 1 to 10 µM and 0.01 to 0.1 µM, respectively.
`CN(c1ncnc2[nH]ccc12)C1CC2(C1)CN(C(=O)c1ccc(C#N)nc1)C2` [Compound 35, 5-(6-(methyl(7H-pyrrolo[2,3-d]pyrimidin-4-yl)amino)-2-azaspiro[3.3]heptane-2-carbonyl)picolinonitrile]: the IC50 in assay [1] is 1 to 10 µM; in assay [2], 1 to 10 µM; in assay [3], 0.01 to 0.1 µM.
For the molecule `CN(c1ncnc2[nH]ccc12)C1CC2(C1)CN(C(=O)c1ccc(C#N)c(Cl)c1)C2` [Compound 36, 2-chloro-4-(6-(methyl(7H-pyrrolo[2,3-d]pyrimidin-4-yl)amino)-2-azaspiro[3.3]heptane-2-carbonyl)benzonitrile], the IC50 in assay [1] fell in the range of 1 to 10 µM; in assay [2] it was 1 to 10 µM; in assay [3], 0.01 to 0.1 µM.
On to `CN(c1ncnc2[nH]ccc12)C1CC2(C1)CN(C(=O)c1ccc(C#N)cc1Cl)C2` [Compound 37, 3-chloro-4-(6-(methyl(7H-pyrrolo[2,3-d]pyrimidin-4-yl)amino)-2-azaspiro[3.3]heptane-2-carbonyl)benzonitrile], for which the IC50 fell in the range of 1 to 10 µM in assay [1], 0.1 to 1 µM in assay [2] and 0.01 to 0.1 µM in assay [3].
Regarding `CN(c1ncnc2[nH]ccc12)C1CC2(C1)CN(C(=O)c1ccc(I)cc1)C2` [Compound 38, (4-iodophenyl)(6-(methyl(7H-pyrrolo[2,3-d]pyrimidin-4-yl)amino)-2-azaspiro[3.3]heptan-2-yl)methanone], the results for the IC50 in assay [1], in assay [2] and in assay [3] were 1 to 10 µM, 0.1 to 1 µM and 0.01 to 0.1 µM, respectively.
With `CN(c1ncnc2[nH]ccc12)C1CC2(C1)CN(C(=O)c1ccc(C3CC3)cc1)C2` [Compound 39, (4-cyclopropylphenyl)(6-(methyl(7H-pyrrolo[2,3-d]pyrimidin-4-yl)amino)-2-azaspiro[3.3]heptan-2-yl)methanone], the figures for the IC50 in assay [1], in assay [2] and in assay [3] were 1 to 10 µM, 0.1 to 1 µM and 0.01 to 0.1 µM, respectively.
With `C#Cc1ccc(C(=O)N2CC3(CC(N(C)c4ncnc5[nH]ccc45)C3)C2)cc1C` [Compound 40, (4-ethynyl-3-methylphenyl)(6-(methyl(7H-pyrrolo[2,3-d]pyrimidin-4-yl)amino)-2-azaspiro[3.3]heptan-2-yl)methanone], the IC50 in assay [1] is 1 to 10 µM; in assay [2], 0.1 to 1 µM; in assay [3] it was no more than 0.01 µM.
In the case of `C#Cc1ccc(C(=O)N2CC3(CC(N(C)c4ncnc5[nH]ccc45)C3)C2)c(F)c1` [Compound 41, (4-ethynyl-2-fluorophenyl)(6-(methyl(7H-pyrrolo[2,3-d]pyrimidin-4-yl)amino)-2-azaspiro[3.3]heptan-2-yl)methanone], the IC50 was 1 to 10 µM in assay [1], 0.01 to 0.1 µM in assay [2] and no more than 0.01 µM in assay [3].
Turning to `CC#Cc1ccc(C(=O)N2CC3(CC(N(C)c4ncnc5[nH]ccc45)C3)C2)cc1` [Compound 42, (6-(methyl(7H-pyrrolo[2,3-d]pyrimidin-4-yl)amino)-2-azaspiro[3.3]heptan-2-yl)(4-(prop-1-yn-1-yl)phenyl)methanone], the IC50 in assay [1] was 1 to 10 µM; in assay [2], 0.01 to 0.1 µM; in assay [3], no more than 0.01 µM.
Regarding `C#Cc1ccc(C(=O)N2CC3(CC(N(C)c4ncnc5[nH]ccc45)C3)C2)c(Cl)c1` [Compound 43, (2-chloro-4-ethynylphenyl)(6-(methyl(7H-pyrrolo[2,3-d]pyrimidin-4-yl)amino)-2-azaspiro[3.3]heptan-2-yl)methanone], the IC50 was 1 to 10 µM in assay [1], 0.1 to 1 µM in assay [2] and no more than 0.01 µM in assay [3].
On to `Cc1cc(C#N)ccc1C(=O)N1CC2(CC(N(C)c3ncnc4[nH]ccc34)C2)C1` [Compound 44, 3-methyl-4-(6-(methyl(7H-pyrrolo[2,3-d]pyrimidin-4-yl)amino)-2-azaspiro[3.3]heptane-2-carbonyl)benzonitrile], for which the IC50 was no less than 10 µM in assay [1], 1 to 10 µM in assay [2] and 0.1 to 1 µM in assay [3].
